This is an account of results in patent US7335686B2, “Method and composition for treating osteoporosis” (Council of Scientific and Industrial Research, priority 2003, dated 2008).

The subject of the experiment is osteoclast precursors (murine bone marrow cells). Briefly: In vitro osteoclastogenesis assay (M-CSF + RANKL, TRAP staining). In kind it is cell-based, Balb/c mice. Conditions: M-CSF and RANKL, TRAP-positive osteoclasts. As for the experimental part: Mice were sacrificed by cervical dislocation and femora and tibiae were aseptically removed and dissected free of adherent soft tissues. The bone ends were cut, and the marrow cavity was flushed out with medium MEM from one end of the bone using a sterile 21-gauge needle. The bone marrow suspension was carefully agitated with a plastic Pasteur pipette to obtain a single-cell suspension. The cells were washed twice and resuspended (10^6 cells/ml) in αMEM containing 10% FBS. […] After 24 h, nonadherent cells were harvested and layered on a Ficoll-Hypaque gradient. Cells at the gradient interface were collected, washed and resuspended (5×10^5/ml) in αMEM containing 10% FBS. In this study, we called these stromal cell-free, M-CSF-dependent, nonadherent cells as osteoclast precursors. These osteoclast precursors were added to 96-well plates (100 μl/well) containing plastic coverslips. […] Cultures were fed every 2-3 days and after incubation for 6 days osteoclast formation was evaluated by tartrate-resistant acid phosphatase (TRAP) staining. The number of TRAP-positive multinucleated cells (MNCs) containing 3 or more nuclei was scored.
TRAP is preferentially expressed at high levels in osteoclast and is considered, especially in the mouse, to be an osteoclast marker. […] Only those cells that were strongly TRAP-positive (dark red) counted by light microscopy.

For `O=C([O-])CC[C@H](NS(=O)(=O)[O-])C(=O)[O-].O=C([O-])CC[C@H](NS(=O)(=O)[O-])C(=O)[O-].[Ca+2].[Ca+2].[Ca+2]` [compound 1, L-glutamyl-N-sulphonic acid, Ca salt], the “Effect on RANKL-induced osteoclast formation/differentiation (in words)” value was “dose dependent inhibition”.

For `O=C(O)C[C@H](NS(=O)(=O)O)C(=O)O` [example 3, L-aspartyl, N-sulfonic acid], the “Effect on RANKL-induced osteoclast formation/differentiation (in words)” value is “significantly inhibited osteoclast formation”.
